From ChEMBL document CHEMBL3804826, “MALT1 Inhibitors May Potentially Treat Lymphomas and Autoimmune Disorders” (ACS Med Chem Lett, 2016)

Experiments:
[1] = target: Baculoviral IAP repeat-containing protein 3/Mucosa-associated lymphoid tissue lymphoma translocation protein 1 (Homo sapiens, UniProt Q13489+Q9UDY8); test: Inhibition of cIAP2-MALT1 (unknown origin) expressed in HEK293 cells assessed as inhibition of NFkappaB signaling after 24 hrs by luciferase reporter gene assay; format: cell-based
[2] = target: T1, Mucosa-associated lymphoid tissue lymphoma translocation protein 1 (Homo sapiens, UniProt Q9UDY8); test: Inhibition of MALT1 (unknown origin) expressed in human Jurkat Clone K22 29Q_H23 cells assessed as IL2 production preincubated for 30 mins followed by PMA stimulation for 5.5 hrs by luciferase reporter gene assay; format: cell-based
T1 sequence (Q9UDY8 whole entry): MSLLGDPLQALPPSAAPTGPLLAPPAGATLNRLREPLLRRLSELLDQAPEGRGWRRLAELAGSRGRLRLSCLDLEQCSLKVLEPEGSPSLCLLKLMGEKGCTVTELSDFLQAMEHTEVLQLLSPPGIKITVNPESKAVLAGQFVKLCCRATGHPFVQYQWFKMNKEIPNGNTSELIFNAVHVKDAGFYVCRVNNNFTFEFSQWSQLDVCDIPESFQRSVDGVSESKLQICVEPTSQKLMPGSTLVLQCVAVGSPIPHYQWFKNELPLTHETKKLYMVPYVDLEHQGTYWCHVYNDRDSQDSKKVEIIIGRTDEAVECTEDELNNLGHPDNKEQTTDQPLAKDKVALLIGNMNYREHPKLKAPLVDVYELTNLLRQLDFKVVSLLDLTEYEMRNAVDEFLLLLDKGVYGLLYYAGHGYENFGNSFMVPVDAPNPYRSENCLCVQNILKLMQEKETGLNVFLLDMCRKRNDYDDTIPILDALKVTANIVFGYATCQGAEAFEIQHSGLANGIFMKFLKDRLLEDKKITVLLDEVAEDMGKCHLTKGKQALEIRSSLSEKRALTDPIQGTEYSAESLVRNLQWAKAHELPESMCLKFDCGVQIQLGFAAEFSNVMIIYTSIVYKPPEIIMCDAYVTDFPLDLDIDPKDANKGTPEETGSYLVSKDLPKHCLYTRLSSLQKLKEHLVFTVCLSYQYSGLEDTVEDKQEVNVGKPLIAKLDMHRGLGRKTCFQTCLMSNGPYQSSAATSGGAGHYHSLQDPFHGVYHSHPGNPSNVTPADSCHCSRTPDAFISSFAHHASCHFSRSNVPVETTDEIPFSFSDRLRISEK

Sequence of Baculoviral IAP repeat-containing protein 3/Mucosa-associated lymphoid tissue lymphoma translocation protein 1 (Q13489 whole entry, one chain of several): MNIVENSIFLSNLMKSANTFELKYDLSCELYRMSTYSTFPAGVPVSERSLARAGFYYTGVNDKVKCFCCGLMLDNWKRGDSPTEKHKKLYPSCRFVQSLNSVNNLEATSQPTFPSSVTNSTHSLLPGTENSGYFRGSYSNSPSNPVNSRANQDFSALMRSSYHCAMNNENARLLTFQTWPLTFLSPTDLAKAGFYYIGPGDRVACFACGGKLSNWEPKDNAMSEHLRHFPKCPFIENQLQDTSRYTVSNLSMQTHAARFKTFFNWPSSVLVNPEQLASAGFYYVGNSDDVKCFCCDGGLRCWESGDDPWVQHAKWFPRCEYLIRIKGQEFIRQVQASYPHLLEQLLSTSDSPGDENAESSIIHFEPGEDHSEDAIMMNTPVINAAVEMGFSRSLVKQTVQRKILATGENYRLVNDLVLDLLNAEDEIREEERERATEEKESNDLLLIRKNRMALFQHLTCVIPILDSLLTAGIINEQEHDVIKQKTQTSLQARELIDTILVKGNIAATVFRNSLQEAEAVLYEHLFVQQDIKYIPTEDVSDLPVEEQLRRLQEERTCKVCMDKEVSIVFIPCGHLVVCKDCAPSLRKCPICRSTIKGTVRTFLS

Row | IC50 [1] [nM] | IC50 [2] [nM] | Structure (SMILES)
1 | 84 | 28 | COCC(c1c(NC(=O)Nc2cnc(-n3nccn3)c(Cl)c2)cnc2cc(Cl)nn12)C1CC1 (stereo unspecified)
2 | 54 | 248 | CC(C)c1c(NC(=O)Nc2cnc(N3CCCS3(=O)=O)c(C(F)(F)F)c2)cnc2cc(Cl)nn12
3 | 132 | 52 | CO[C@@H](C)c1c(NC(=O)Nc2cncc(C(F)(F)F)c2)cnc2cc(C)nn12
